Experimental data taken from US4478826A, “Renin inhibitory peptides” (Merck & Co., Inc., priority 1982, dated 1984).
Square brackets hold non-standard residues; d marks the D form. Peptide text beside a SMILES is read from it. * marks the point of attachment. Sta = CC(C)C[C@H](N)[C@@H](O)CC(=O)O; Isobutyryl = CC(C)C(=O)*

Molecular target: T1, human renin (Homo sapiens, UniProt P00797)
T1 construct: Human plasma (lyophilized) was used as the source of human substrate and human renin; from tissue; host or cells: human plasma (lyophilized)
T1 sequence (P00797 67-406): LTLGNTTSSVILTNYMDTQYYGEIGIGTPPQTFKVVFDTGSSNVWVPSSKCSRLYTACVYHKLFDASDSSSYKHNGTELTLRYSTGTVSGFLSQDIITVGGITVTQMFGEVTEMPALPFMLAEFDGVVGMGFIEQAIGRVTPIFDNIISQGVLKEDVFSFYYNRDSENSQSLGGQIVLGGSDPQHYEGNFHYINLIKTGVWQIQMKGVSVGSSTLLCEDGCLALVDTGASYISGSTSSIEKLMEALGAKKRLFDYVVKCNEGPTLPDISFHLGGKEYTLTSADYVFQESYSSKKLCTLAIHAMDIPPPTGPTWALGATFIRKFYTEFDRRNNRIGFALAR
Experiment: Human renin assay (radioimmunoassay of angiotensin I, human plasma)
Format: biochemical
Conditions: human plasma (lyophilized) as source of human substrate and human renin; read-out: I50 (M) Human renin
Description: This method employs a radioimmunoassay technique to measure the amount of angiotensin I product of renin cleavage of its substrate. Human plasma (lyophilized) was used as the source of human substrate and human renin. I50 values were obtained by plotting data at several inhibitor concentrations.

IC50: 4.2e-08 M
SMILES: CC(C)C[C@H](NC(=O)[C@H](Cc1c[nH]cn1)NC(=O)[C@H](Cc1ccccc1)NC(=O)[C@@H]1CCCN1C(=O)[C@H](Cc1c[nH]cn1)NC(=O)C(C)C)[C@@H](O)CC(=O)N[C@@H](C)C(=O)N[C@@H](Cc1ccccc1)C(N)=O [IBU--His--Pro--Phe--His--Sta--Ala--Phe--NH2] (Isobutyryl-HPFH[Sta]AF-NH2)
